Read-outs that look alike come from different tables or passages of the source.

One assay addresses T1, BAF3-KIF5B-RET cells (Homo sapiens, UniProt P07949).
T1 construct: fused on or other part: P33176 (Kinesin-1 heavy chain)
Put plainly: BAF3-KIF5B-RET Cell Proliferation Assay (CellTiter-Glo). It counts as cell-based. The conditions noted are these: growth inhibition, 72 hours. The method, boiled down: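 Ba/F3 cells driven by KIF5B-RET (wild-type, V804M or G810R) or TEL-RET-M918T, 2,000 per well in RPMI/10% FBS, attached 24 h. Treated 72 h at 37° C with compound from 0.00015 to 1 μM final, 0.1% DMSO. CellTiter-Glo luminescence relative to DMSO wells gave IC50.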
(ATP-based viability assays read luminescence as a measure of living cells.)

In assay [1] the target is T2, Ba/F3-KIF5B-RET-V804M cells (Homo sapiens, UniProt P07949, V804M, cells depend on it).
T2 construct: fused on or other part: P33176 (Kinesin-1 heavy chain)
T2 sequence (P07949 whole entry V804M, the tested form may be a part): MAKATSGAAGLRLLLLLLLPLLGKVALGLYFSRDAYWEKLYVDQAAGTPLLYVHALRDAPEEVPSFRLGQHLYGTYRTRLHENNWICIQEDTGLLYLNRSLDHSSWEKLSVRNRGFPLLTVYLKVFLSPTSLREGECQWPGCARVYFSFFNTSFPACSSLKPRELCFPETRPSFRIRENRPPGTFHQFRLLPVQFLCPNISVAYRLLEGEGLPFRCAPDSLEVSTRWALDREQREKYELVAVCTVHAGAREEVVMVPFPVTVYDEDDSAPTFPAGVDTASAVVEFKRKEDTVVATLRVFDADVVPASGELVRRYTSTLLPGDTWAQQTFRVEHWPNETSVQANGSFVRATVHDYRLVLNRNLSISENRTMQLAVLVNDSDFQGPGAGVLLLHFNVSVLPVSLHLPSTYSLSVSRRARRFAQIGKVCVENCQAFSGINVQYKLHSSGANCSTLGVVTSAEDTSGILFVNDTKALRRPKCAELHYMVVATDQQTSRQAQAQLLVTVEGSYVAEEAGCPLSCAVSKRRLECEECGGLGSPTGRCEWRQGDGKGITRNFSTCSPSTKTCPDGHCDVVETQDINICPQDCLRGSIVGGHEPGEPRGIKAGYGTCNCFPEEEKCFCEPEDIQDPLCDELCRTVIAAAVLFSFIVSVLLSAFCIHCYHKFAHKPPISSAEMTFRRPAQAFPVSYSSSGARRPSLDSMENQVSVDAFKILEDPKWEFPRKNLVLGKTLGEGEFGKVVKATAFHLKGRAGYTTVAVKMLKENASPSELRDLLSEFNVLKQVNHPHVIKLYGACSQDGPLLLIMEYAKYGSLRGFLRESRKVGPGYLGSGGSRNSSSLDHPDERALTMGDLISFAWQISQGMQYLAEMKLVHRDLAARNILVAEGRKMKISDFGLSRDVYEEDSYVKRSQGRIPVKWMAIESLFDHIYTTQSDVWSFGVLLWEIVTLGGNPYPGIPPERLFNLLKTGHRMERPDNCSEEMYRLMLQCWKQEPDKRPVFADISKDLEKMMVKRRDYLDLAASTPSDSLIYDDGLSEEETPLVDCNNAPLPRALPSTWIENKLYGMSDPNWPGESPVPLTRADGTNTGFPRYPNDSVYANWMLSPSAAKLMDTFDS
The experiment in a line: Ba/F3-KIF5B-RET-V804M Cell Proliferation Assay (CellTiter-Glo). It counts as cell-based. The note with it: growth inhibition, 72 hours; Table 3; read-out: BZ/F3-KIF5B-RET V804M. Here is the method:
(§1) Compounds disclosed herein were tested for the inhibition of RET by a cancer cell proliferation assay commonly known as CellTiter-Glo assay. In this assay, a complete media was prepared by adding 10% fetal bovine serum to RPMI-1640 medium (Life technology) for RET-driven cancer cells (BAF3-FIF5B-RET, Ba/F3-KIF5B-RET-G810R, Ba/F3-TEL-RET-M918T or Ba/F3-KIF5B-RET-V804M). Individual RET-driven type of cells were added to each of 88 wells of a 96 well plate at a seeding density of 2,000 cells/well/95 μL. The cells were allowed to attach to the plate by incubating at 37° C. for 24 hours. The compound was dissolved in DMSO (SIGMA). A solution of test compound was prepared in complete media by serial dilution to obtain the following concentrations: 20 μM, 6.67 μM, 2.22 μM, 0.74 μM, 0.25 μM, 0.082 μM, 0.027 μM, 0.0091 μM and 0.0030 μM. The test compound solution (5 μL) was added to each of 80 cell-containing wells. The final concentrations of the compound were following: 1 μM, 0.33 μM, 0.11 μM, 0.037 μM, 0.012 μM, 0.0041 μM, 0.0014 μM, 0.00046 μM and 0.00015 μM. The final concentration of DMSO is 0.1%. To the 8 remaining cell-containing wells, only complete media (containing 0.1% DMSO) was added to form a control group in order to measure maximal proliferation. To the remaining 8 empty wells, complete media was added to for a vehicle control group in order to measure background. The plates were incubated at 37° C. for 72 hours. 50 μl of CellTiter-Glo® Reagent was added to each well. Mix contents for 2 minutes on an orbital shaker to induce cell lysis. Incubate at room temperature for 10 minutes to stabilize luminescent signal. Record luminescence on Paradigm. Cell viability (CV %) was calculated relative to vehicle (DMSO) treated control wells. The IC50 was calculated using GraphPad Prism.

In assay [2] the target is T3, Ba/F3-KIF5B-RET-G810R cells (Homo sapiens, UniProt P07949, G810R, cells depend on it).
T3 construct: fused on or other part: P33176 (Kinesin-1 heavy chain)
T3 sequence (P07949 whole entry G810R, the tested form may be a part): as the sequence (P07949 whole entry V804M, the tested form may be a part) above, with M804V, G810R counted along it
Put plainly: Ba/F3-KIF5B-RET-G810R Cell Proliferation Assay (CellTiter-Glo). It counts as cell-based. The conditions noted are these: growth inhibition, 72 hours; Table 3. Here is the method: as §1

For assay [3], the target named is BA/F3-KIF5B-RET M918T cells (Homo sapiens, UniProt P07949, M918T, cells depend on it, form not given). Put plainly: Ba/F3 RET-M918T Cell Proliferation Assay (CellTiter-Glo). Type of assay: cell-based. The conditions noted are these: growth inhibition, 72 hours; Table 3. Here is the method: as §1
Chain of BA/F3-KIF5B-RET M918T cells (P07949 whole entry M918T, form open): as the sequence (P07949 whole entry V804M, the tested form may be a part) above, with M804V, M918T counted along it
Another assay concerns BAF3 cells. Put plainly: BAF3 Cell Proliferation Assay (CellTiter-Glo, without RET driven, IL-3). It counts as cell-based. The note with it: Mus musculus; growth inhibition in BAF3 cells, 72 hours, with IL-3; read-out: BAF3 Cellular Activity. The gist of the method:
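BAF3 cells in RPMI-1640 with 10% FBS and 1 ng/ml IL-3, seeded 2,000/well and settled 24 h at 37 °C, then exposed to compound at final 10 μM down to 0.0015 μM (0.1% DMSO) for 72 h. Viability by CellTiter-Glo luminescence versus DMSO controls; IC50 from curve fit.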

The target in the next assay is T4, human Aurora B kinase (Homo sapiens, UniProt Q96GD4).
T4 construct: purchased Carna 05-102
T4 sequence (Q96GD4 whole entry): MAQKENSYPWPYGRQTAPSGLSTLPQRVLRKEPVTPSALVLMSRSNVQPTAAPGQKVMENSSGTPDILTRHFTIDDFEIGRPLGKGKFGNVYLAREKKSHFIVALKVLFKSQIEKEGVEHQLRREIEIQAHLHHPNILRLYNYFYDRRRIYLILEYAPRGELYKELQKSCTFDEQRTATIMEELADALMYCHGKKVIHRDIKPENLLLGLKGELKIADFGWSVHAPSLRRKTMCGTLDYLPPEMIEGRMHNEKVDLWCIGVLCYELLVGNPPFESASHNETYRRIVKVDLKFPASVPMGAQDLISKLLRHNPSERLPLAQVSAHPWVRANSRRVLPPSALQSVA
T4 sequence (Q9NQS7 803-918 partner limits assumed): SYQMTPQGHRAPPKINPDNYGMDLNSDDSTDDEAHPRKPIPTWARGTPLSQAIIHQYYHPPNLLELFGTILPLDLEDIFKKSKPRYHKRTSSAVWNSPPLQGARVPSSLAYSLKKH
Put plainly: Aurora B Kinase Assay (mobility shift assay, ATP at Km). The note with it: 15 μM ATP (Km), read-out: AurB Enzymatic Activity. Type of assay: biochemical. Here is the method:
Compounds were tested by Mobility shift assay with ATP concentration at Km. The assay used human Aurora B kinase (Carna 05-102). Test compounds were prepared and diluted in DMSO in 3-fold serial dilutions to 50× of the final testing concentrations. The compounds were then further diluted to 5× by the kinase reaction buffer (50 mM HEPES pH 7.5, 0.0015% Brij-35). The enzymatic reaction for compound testing was performed in a white 384-well polypropylene plate (Corning 3573) with a total reaction volume of 25 μl containing 9 nM Aurora B, 3 μM peptide substrate FAM-P21 (GL Biochem 116370), and 15 μM ATP (Sigma A7699-1G). The assay started with loading Aurora B diluted in kinase reaction buffer to wells, followed by addition of equal volume of 5× compounds for 15-min incubation at the room temperature for pre-treatment. The enzymatic reaction was initiated by addition of mixture of the substrate and ATP prepared in kinase reaction buffer. After incubation at 28° C. for one hour, 25 μl of stopper buffer (a mixture of 100 mM HEPES pH 7.5 buffer, 0.015% Brij-35, 50 mM EDTA and 0.2% of coating reagent 3 (Cliper Lifesciences)). After 30 minutes of incubation at room temperature, the plate was read in a Caliper. Percent of control was calculated as the percentage of compound-treated vs 2% DMSO vehicle-treated. The dose-response curves were generated and the IC50 values were calculated by nonlinear sigmoid curve fitting using XLFit.

A further assay concerns the target T5, human RET kinase (Homo sapiens, UniProt P07949).
T5 construct: purchased Carna 08-159
Put plainly: RET Kinase Assay (mobility shift assay, ATP at Km). It counts as biochemical. The conditions noted are these: 23 μM ATP (Km), read-out: RET Enzymatic Activity. Here is the method:
Compounds were tested by Mobility shift assay with ATP concentration at Km. The assay used human RET kinase (Carna 08-159). Test compounds were prepared and diluted in DMSO in 3-fold serial dilutions to 50× of the final testing concentrations. The compounds were then further diluted to 5× by the kinase reaction buffer (50 mM HEPES pH 7.5, 0.0015% Brij-35). The enzymatic reaction for compound testing was performed in a white 384-well polypropylene plate (Corning 3573) with a total reaction volume of 25 μl containing 7 nM RET, 3 μM peptide substrate FAM-P2 (GL Biochem 112394), and 23 μM ATP (Sigma A7699-1G). The assay started with loading RET diluted in kinase reaction buffer to wells, followed by addition of equal volume of 5× compounds for 15-min incubation at the room temperature for pre-treatment. The enzymatic reaction was initiated by addition of mixture of the substrate and ATP prepared in kinase reaction buffer. After incubation at 28° C. for one hour, 25 μl of stopper buffer (a mixture of 100 mM HEPES pH 7.5 buffer, 0.015% Brij-35, 50 mM EDTA and 0.2% of coating reagent 3 (Cliper Lifesciences)). After 30 minutes of incubation at room temperature, the plate was read in a Caliper. Percent of control was calculated as the percentage of compound-treated vs 2% DMSO vehicle-treated. The dose-response curves were generated and the IC50 values were calculated by nonlinear sigmoid curve fitting using XLFit.

The target in the next assay is T6, human KDR kinase (Homo sapiens, UniProt P35968).
T6 construct: purchased Carna 08-191
T6 sequence (P35968 20-1356): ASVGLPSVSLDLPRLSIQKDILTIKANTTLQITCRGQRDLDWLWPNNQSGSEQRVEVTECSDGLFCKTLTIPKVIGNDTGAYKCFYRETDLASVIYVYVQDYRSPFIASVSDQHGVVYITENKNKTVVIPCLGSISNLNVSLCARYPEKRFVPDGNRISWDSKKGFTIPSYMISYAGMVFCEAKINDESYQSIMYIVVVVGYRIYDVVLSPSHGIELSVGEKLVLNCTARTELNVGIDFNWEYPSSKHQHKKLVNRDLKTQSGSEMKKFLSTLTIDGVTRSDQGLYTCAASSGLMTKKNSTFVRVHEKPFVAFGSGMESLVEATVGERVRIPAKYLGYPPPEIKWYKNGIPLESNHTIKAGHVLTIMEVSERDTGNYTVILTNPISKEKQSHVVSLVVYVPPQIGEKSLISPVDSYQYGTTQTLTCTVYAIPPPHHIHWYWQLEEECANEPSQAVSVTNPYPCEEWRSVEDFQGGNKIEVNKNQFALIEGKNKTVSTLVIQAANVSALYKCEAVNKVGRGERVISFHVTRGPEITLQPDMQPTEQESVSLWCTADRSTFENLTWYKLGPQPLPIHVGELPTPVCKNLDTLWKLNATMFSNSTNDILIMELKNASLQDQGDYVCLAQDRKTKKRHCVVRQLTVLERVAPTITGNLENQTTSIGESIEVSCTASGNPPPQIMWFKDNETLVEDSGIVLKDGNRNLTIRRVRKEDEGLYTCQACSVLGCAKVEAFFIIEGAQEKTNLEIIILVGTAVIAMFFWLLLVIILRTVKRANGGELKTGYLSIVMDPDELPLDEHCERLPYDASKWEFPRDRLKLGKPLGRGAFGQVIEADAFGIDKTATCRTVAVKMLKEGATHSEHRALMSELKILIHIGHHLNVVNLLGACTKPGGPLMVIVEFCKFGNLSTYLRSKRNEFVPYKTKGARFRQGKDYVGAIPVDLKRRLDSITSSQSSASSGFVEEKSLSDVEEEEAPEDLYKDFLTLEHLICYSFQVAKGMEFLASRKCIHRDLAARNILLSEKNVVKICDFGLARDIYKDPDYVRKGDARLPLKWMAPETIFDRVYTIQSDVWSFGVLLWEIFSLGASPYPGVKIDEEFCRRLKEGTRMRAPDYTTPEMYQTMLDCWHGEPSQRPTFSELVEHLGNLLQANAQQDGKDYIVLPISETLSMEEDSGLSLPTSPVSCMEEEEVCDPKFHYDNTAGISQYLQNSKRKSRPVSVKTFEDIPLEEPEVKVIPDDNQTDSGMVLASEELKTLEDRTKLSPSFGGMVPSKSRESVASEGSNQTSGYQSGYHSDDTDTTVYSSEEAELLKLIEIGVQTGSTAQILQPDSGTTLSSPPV
The experiment in a line: KDR Kinase Assay (mobility shift assay, ATP at Km). Type of assay: biochemical. The note with it: 92 μM ATP (Km), read-out: KDR Enzymatic Activity. Here is the method: Compounds were tested by Mobility shift assay with ATP concentration at Km. The assay used human KDR kinase (Carna 08-191). Test compounds were prepared and diluted in DMSO in 3-fold serial dilutions to 50× of the final testing concentrations. The compounds were then further diluted to 5× by the kinase reaction buffer (50 mM HEPES pH 7.5, 0.0015% Brij-35). The enzymatic reaction for compound testing was performed in a white 384-well polypropylene plate (Corning 3573) with a total reaction volume of 25 μl containing 1.2 nM KDR, 3 μM peptide substrate FAM-P22 (GL Biochem 112393), and 92 μM ATP (Sigma A7699-1G). The assay started with loading RET diluted in kinase reaction buffer to wells, followed by addition of equal volume of 5× compounds for 15-min incubation at the room temperature for pre-treatment. The enzymatic reaction was initiated by addition of mixture of the substrate and ATP prepared in kinase reaction buffer. After incubation at 28° C. for one hour, 25 μl of stopper buffer (a mixture of 100 mM HEPES pH 7.5 buffer, 0.015% Brij-35, 50 mM EDTA and 0.2% of coating reagent 3 (Cliper Lifesciences)). After 30 minutes of incubation at room temperature, the plate was read in a Caliper. Percent of control was calculated as the percentage of compound-treated vs 2% DMSO vehicle-treated. The dose-response curves were generated and the IC50s were calculated by nonlinear sigmoid curve fitting using XLFit.

Setting [4] is: Table 2, read-out: BA/F3-KIF5B-RET Cellular activity.
Where [5] appears, read: Table 3, read-out: BA/F3-KIF5B-RET.

T5 sequence (P07949 29-1114): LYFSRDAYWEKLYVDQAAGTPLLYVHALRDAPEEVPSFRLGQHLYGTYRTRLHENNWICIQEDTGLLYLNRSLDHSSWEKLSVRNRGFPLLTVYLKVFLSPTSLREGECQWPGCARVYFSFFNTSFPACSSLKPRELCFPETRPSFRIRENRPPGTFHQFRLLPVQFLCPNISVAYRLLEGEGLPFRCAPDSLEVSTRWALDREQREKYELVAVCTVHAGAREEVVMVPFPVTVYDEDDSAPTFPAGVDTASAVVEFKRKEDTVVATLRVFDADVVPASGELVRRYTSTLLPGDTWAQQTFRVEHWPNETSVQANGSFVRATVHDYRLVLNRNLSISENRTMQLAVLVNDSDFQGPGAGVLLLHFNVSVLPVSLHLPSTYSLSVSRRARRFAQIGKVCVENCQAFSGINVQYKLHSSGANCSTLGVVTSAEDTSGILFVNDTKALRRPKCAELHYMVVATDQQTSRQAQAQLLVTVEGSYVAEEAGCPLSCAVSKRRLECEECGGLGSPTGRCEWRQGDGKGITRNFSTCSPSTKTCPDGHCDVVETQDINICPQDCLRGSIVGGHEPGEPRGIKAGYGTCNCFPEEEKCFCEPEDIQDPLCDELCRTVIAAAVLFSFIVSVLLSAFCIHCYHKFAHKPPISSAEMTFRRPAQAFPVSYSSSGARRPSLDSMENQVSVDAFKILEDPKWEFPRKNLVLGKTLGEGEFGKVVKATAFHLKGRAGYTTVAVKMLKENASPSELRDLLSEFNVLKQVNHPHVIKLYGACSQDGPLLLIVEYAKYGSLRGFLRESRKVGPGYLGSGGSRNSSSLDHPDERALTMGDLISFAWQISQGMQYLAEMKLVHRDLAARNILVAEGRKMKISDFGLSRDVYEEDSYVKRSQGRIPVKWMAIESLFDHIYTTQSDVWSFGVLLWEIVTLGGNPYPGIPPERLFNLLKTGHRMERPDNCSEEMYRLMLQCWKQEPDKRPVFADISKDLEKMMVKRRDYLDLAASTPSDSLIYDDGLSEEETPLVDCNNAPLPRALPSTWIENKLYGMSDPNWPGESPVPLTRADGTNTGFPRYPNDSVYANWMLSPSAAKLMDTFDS
T1 sequence (P07949 whole entry, change not shown, the tested form may be a part): as the sequence (P07949 whole entry V804M, the tested form may be a part) above, with M804V counted along it

Take `COc1ccc(CN2C3CC2CN(c2ccc(-c4cc(-c5ccc(C(C)(C)O)cn5)cn5ncc(C#N)c45)cn2)C3)cn1` [Example 9, 6-(5-(2-hydroxypropan-2-yl)pyridin-2-yl)-4-(6-(6-((6-methoxypyridin-3-yl)methyl)-3,6-diazabicyclo[3.1.1]heptan-3-yl)pyridin-3-yl)pyrazolo[1,5-a]pyridine-3-carbonitrile]: the GI50 was determined as 0.6 nM on BAF3-KIF5B-RET cells (setting [4]); 0.6 nM on BAF3-KIF5B-RET cells (setting [5]); 4.8 nM in assay [1]; 54.6 nM in assay [2]; 13.2 nM in assay [3]. Further, the IC50 in the assay on BAF3 cells is 1130 nM; at human Aurora B kinase it was 80 nM; at human RET kinase, 0.58 nM.
In the case of `CC(C)(O)c1ccc(-c2cc(-c3cnc(N4C5CC6CC4CC(NC(=O)c4ncccc4Cl)(C6)C5)cn3)c3c(C#N)cnn3c2)nc1` [Example 18, 3-chloro-N-((1R,3S,5s,7s)-2-(5-(3-cyano-6-(5-(2-hydroxypropan-2-yl)pyridin-2-yl)pyrazolo[1,5-a]pyridin-4-yl)pyrazin-2-yl)-2-azaadamantan-5-yl)picolinamide], the figures for the IC50 at human KDR kinase, in the assay with BAF3 cells and on human RET kinase were 21 nM, 1170 nM and 1.4 nM, respectively. The GI50 came to 0.7 nM on BAF3-KIF5B-RET cells (setting [4]); 0.7 nM at BAF3-KIF5B-RET cells (setting [5]); 3.9 nM in assay [1]; 59.4 nM in assay [2]; 18.4 nM in assay [3].
Consider `CC(C)(O)c1ccc(-c2cc(-c3ccc(N4C5CC6CC4CC(NC(=O)c4ncccc4Cl)(C6)C5)nc3)c3c(C#N)cnn3c2)nc1` [Example 23, 3-chloro-N-((1R,3S,5s,7s)-2-(5-(3-cyano-6-(5-(2-hydroxypropan-2-yl)pyridin-2-yl)pyrazolo[1,5-a]pyridin-4-yl)pyridin-2-yl)-2-azaadamantan-5-yl)picolinamide], for which the IC50 on human KDR kinase was determined as 4.2 nM; in the assay on BAF3 cells it was 1140 nM; on human RET kinase, 1.7 nM. At BAF3-KIF5B-RET cells (setting [4]), the GI50 turned out to be 0.5 nM.
Consider `COc1ccc(CN2C3CC2CN(c2ccc(-c4cc(OCC(C)(C)O)cn5ncc(C#N)c45)cn2)C3)cn1` [Loxo-292, reference compound], for which the GI50 at BAF3-KIF5B-RET cells (setting [5]) amounted to 3.3 nM; in assay [1], 43.6 nM; in assay [2] it was 624 nM; in assay [3], 46.9 nM.
